Measured values reported in article PMC7618104, “The GLP-1 analogue, exendin-4, improves bone material properties and strength through a central relay in ovariectomized mice” (American journal of physiology. Endocrinology and metabolism, 2025).

Legend:
[1] = system: ovariectomized BALB/c mice; experiment: Tissue material strength of femur (from peak bending moment and geometry); format: in vivo, mouse (BALB/cJRj, female); settings: 28 days, vs OVX+vehicle, n=8
Protocol: (§1) Eight animals were randomly assigned to each group.
The whole-bone strength of right femurs was assessed by 3-point bending in accordance with published guidelines ([34]). Three-point bending strength was measured with a constant span length of 10 mm. Bones were tested in the antero-posterior axis with the posterior surface facing upward, centered on the support and the pressing force was applied vertically to the midshaft of the bone. Each bone was tested fully hydrated and at room temperature with a loading speed of 2 mm.min^-1 until failure with a 500 N load cell on an Instron 5942 device (Instron, Elancourt, France) and the load-displacement curve was recorded at a 100 Hz rate by the Bluehill 3 software (Instron). Ultimate load, ultimate displacement, stiffness and work to fracture were calculated as indicated in ([34]). The yield point was determined as the point at which a regression line that represents a 10% loss in stiffness crosses the load-displacement curve. Post-yield displacement was computed as the displacement between yielding and fracture. Peak bending moment was calculated as one-half the ultimate load multiplied by one-half the span length ([34]). The peak bending moment is related to bone tissue material properties and bone midshaft geometry by the following equation: M=σb×IML/cAP […]

[2] = system: animal models of bone fragility; settings: subcutaneous, OVX model; cited from earlier work
From the text: These observations formed the basis for investigating the potential utility of a GLP-1r agonist for the management of bone fragility. Ex-4 has already been administered subcutaneously in preclinical models of bone fragility, including the OVX model used in the present study. Previous studies have reported positive effects of Ex-4 that increased bone mineral density, trabecular microstructure and circulating calcitonin leve ...

[3] = system: ovariectomized BALB/c mice; experiment: 3-point bending of femur (whole-bone strength), ovariectomy-induced bone fragility model; format: in vivo, mouse (BALB/cJRj, female); settings: 28 days, n=8
Protocol: as §1
(§2) All animals received intraperitoneal administration of calcein green (10 mg/kg) 10 days and 2 days before sacrifice. Animals were housed in social groups and maintained in a 12 h:12 h light/dark cycle. They had free access to water and food. At necropsy, blood was collected by intracardiac aspiration into EDTA-treated tubes. Blood samples were centrifuged at 13,000 g for 15 min, aliquoted and stored at -80°C until plasma levels of exendin-4 (#EK-070-94, Phoenix pharmaceuticals, Burlingame, CA) and calcitonin (NBP3-06734, Bio-Techne Ltd, Abingdon, UK) were measured according to the manufacturer’s protocol. Plasma levels of the bone remodeling markers C-terminal telopeptide of collagen type I (CTx-I – RatLaps, Immunodiagnostic Systems Ltd, Boldon, UK) and N-terminal propeptide of type I collagen (P1NP - Rat/mouse P1NP, Immunodiagnostic Systems Ltd) were measured according to the manufacturers’ recommendation. Right femurs were wrapped in saline-soaked gauze and frozen at -20°C until use. Right tibiae were fixed in ethanol-based fixative and stored at 4°C until use. No specific inclusion or exclusion criteria were applied for animal selection. […] Additionally, correct implantation of the cerebral perfusion cannulas for icv-administered animals was verified at necropsy. All animals meeting these criteria were included in the study.
The whole-bone strength of right femurs was assessed by 3-point bending in accordance with published guidelines ([34]). Three-point bending strength was measured with a constant span length of 10 mm. Bones were tested in the antero-posterior axis with the posterior surface facing upward, centered on the support and the pressing force was applied vertically to the midshaft of the bone. Each bone was tested fully hydrated and at room temperature with a loading speed of 2 mm.min^-1 until failure with a 500 N load cell on an Instron 5942 device (Instron, Elancourt, France) and the load-displacement curve was recorded at a 100 Hz rate by the Bluehill 3 software (Instron). Ultimate load, ultimate displacement, stiffness and work to fracture were calculated as indicated in ([34]). The yield point was determined as the point at which a regression line that represents a 10% loss in stiffness crosses the load-displacement curve. Post-yield displacement was computed as the displacement between yielding and fracture. Peak bending moment was calculated as one-half the ultimate load multiplied by one-half the span length ([34]). The peak bending moment is related to bone tissue material properties and bone midshaft geometry by the following equation: M=σb×IML/cAP

[4] = system: ovariectomized BALB/c mice; experiment: Bone histomorphometry at the proximal tibia metaphysis; format: in vivo, mouse (BALB/cJRj, female); settings: 28 days, n=8; for BFR/BS / MAR / MS/BS / O.Th / OS/BS / N.Oc/B.Pm / Oc.S/BS: mean ± SD; for N.Oc/B.Pm / Oc.S/BS: p<0.001 vs. OVX+Vehicle
Protocol: as §1, §2
After microCT, right tibias were embedded undecalcified in polymethylmethacrylate (pMMA) at 4°C as previously reported ([32]). Seven micron-thick sections were made with a sledge microtome (Polycut S, Leica, Nanterre, France) prior to histoenzymatic detection of TRAP or Goldner trichrome staining. Dynamic histomorphometry was perfomed after counterstaining the bone matrix with calcein blue. All histomorphometrical parameters were measured with an in-house written application developed in Matlab R2023b (The Mathworks, Natick, CA, RRID:SCR_001622) according to guidelines and nomenclature proposed by the American Society for Bone and Mineral Research ([33]).

[5] = icv Ex-4 70 pmol/day, vs OVX+vehicle, p<0.001

exendin-4 [Ex-4]
increase in tissue material strength ([1]; icv Ex-4 70 pmol/day, p=0.005): 9%
increase in tissue material strength ([1]; s.c. Ex-4 ~700 pmol/day, p=0.043): 11%
bone mineral density, trabecular microstructure, calcitonin, osteoclast parameters, bone strength [2]: increased bone mineral density, trabecular microstructure and circulating calcitonin levels and reduced osteoclast parameters, resulting in greater bone strength
increase in energy-to-fracture [3, 5]: 8%
increase in post-yield displacement [3, 5]: 8%
increase in ultimate load ([3]; icv Ex-4 70 pmol/day, vs OVX+vehicle, p=0.010): 7%
ultimate load ([3]; s.c. Ex-4 ~700 pmol/day, OVX, p=0.817): did not prevent the impact of ovariectomy on ultimate load
stiffness ([3]; s.c. Ex-4 ~700 pmol/day, OVX, p=0.984): did not prevent the impact of ovariectomy
increase in energy-to-fracture ([3]; s.c. Ex-4 ~700 pmol/day, vs OVX+vehicle, p=0.020): 24%
increase in post-yield displacement ([3]; s.c. Ex-4 ~700 pmol/day, vs OVX+vehicle, p=0.025): 18%
BFR/BS ([4]; OVX + Ex-4, icv 70 pmol/day): 0.282 ± 0.065 μm^3/μm^2/day
MAR ([4]; OVX + Ex-4, icv 70 pmol/day): 2.17 ± 0.41 μm/day
MS/BS ([4]; OVX + Ex-4, icv 70 pmol/day): 12.9 ± 1.2%
O.Th ([4]; OVX + Ex-4, icv 70 pmol/day): 4.7 ± 0.7 μm
OS/BS ([4]; OVX + Ex-4, icv 70 pmol/day): 3.0 ± 2.2%
N.Oc/B.Pm ([4]; OVX + Ex-4, icv 70 pmol/day): 1.01 ± 0.27 ^*** mm^-1
Oc.S/BS ([4]; OVX + Ex-4, icv 70 pmol/day): 0.96 ± 0.27 %
BFR/BS ([4]; OVX + Ex-4, s.c. ~700 pmol/day): 0.301 ± 0.059 μm^3/μm^2/day
MAR ([4]; OVX + Ex-4, s.c. ~700 pmol/day): 2.30 ± 0.35 μm/day
MS/BS ([4]; OVX + Ex-4, s.c. ~700 pmol/day): 13.0 ± 1.3%
O.Th ([4]; OVX + Ex-4, s.c. ~700 pmol/day): 4.8 ± 0.8 μm
OS/BS ([4]; OVX + Ex-4, s.c. ~700 pmol/day): 2.4 ± 1.0%
N.Oc/B.Pm ([4]; OVX + Ex-4, s.c. ~700 pmol/day): 1.11 ± 0.26
Oc.S/BS ([4]; OVX + Ex-4, s.c. ~700 pmol/day): 0.99 ± 0.28 %
change in number of osteoclasts [4, 5]: -51%
change in osteoclast surfaces [4, 5]: -45%
change in number of osteoclasts and osteoclast surfaces ([4]; s.c. Ex-4 ~700 pmol/day, vs OVX+vehicle, p<0.001): -41%
